Measurements as given in ChEMBL document CHEMBL1201862, “PubChem BioAssay data set” (2004).
Activity calls are given as the source filed them.

How the values were obtained:
[1] = biological target: T1, Voltage-gated N-type calcium channel alpha-1B subunit/Amyloid beta A4 precursor protein-binding family A member 1 (Homo sapiens, UniProt Q00975+Q02410); format: protein assay
[2] = biological target: T1, Voltage-gated N-type calcium channel alpha-1B subunit/Amyloid beta A4 precursor protein-binding family A member 1; format: protein assay; remark: listed apart in the source
[3] = biological target: Induced myeloid leukemia cell differentiation protein Mcl-1 (Homo sapiens, UniProt Q07820); format: functional
Aminopeptidase N = biological target: T2, Aminopeptidase N (Plasmodium falciparum FcB1/Columbia, UniProt O96935); test: malaria alanyl aminopeptidase activity blockers – biochemical, fluorogenic H-Leu-NHMec substrate, 1536-well (AID 1445); set-up: species or system Plasmodium falciparum 3D7, 3D7
T2 sequence (O96935 whole entry): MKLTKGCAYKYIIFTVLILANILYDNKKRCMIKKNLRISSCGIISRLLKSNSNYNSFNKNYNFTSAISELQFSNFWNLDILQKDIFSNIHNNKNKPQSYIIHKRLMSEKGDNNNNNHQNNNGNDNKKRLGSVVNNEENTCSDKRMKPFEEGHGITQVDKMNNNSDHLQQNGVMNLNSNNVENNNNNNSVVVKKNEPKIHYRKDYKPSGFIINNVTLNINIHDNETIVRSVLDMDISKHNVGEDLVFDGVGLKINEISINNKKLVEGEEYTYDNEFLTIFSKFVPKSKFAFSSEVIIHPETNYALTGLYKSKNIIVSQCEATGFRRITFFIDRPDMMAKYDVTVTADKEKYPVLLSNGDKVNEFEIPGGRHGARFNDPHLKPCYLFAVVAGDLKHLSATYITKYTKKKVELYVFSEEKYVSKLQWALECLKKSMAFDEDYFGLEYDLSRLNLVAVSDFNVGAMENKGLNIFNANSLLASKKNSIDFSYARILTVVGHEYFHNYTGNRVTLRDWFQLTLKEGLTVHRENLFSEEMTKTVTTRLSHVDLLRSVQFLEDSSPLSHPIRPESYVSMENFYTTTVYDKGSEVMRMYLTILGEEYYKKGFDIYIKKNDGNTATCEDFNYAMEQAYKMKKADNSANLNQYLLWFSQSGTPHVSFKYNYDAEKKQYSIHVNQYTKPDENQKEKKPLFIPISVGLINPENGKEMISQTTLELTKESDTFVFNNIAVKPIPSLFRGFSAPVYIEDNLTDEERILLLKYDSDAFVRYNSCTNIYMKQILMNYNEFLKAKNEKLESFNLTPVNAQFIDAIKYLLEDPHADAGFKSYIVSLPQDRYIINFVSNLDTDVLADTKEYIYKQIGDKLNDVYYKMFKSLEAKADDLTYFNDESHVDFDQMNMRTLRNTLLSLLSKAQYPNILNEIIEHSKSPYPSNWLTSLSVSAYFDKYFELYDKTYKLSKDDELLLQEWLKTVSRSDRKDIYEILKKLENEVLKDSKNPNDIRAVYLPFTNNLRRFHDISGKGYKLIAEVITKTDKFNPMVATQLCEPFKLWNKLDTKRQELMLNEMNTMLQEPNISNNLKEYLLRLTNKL

[4] = biological target: T3, Acyl-homoserine lactone acylase PvdQ (Pseudomonas aeruginosa (strain LESB58), UniProt Q9I194); test: PvdQ acylase enzyme activity blockers – biochemical, fluorescence, plate reader and imaging, cherry-picks, dose response (AID 493231)
T3 sequence (Q9I194 whole entry): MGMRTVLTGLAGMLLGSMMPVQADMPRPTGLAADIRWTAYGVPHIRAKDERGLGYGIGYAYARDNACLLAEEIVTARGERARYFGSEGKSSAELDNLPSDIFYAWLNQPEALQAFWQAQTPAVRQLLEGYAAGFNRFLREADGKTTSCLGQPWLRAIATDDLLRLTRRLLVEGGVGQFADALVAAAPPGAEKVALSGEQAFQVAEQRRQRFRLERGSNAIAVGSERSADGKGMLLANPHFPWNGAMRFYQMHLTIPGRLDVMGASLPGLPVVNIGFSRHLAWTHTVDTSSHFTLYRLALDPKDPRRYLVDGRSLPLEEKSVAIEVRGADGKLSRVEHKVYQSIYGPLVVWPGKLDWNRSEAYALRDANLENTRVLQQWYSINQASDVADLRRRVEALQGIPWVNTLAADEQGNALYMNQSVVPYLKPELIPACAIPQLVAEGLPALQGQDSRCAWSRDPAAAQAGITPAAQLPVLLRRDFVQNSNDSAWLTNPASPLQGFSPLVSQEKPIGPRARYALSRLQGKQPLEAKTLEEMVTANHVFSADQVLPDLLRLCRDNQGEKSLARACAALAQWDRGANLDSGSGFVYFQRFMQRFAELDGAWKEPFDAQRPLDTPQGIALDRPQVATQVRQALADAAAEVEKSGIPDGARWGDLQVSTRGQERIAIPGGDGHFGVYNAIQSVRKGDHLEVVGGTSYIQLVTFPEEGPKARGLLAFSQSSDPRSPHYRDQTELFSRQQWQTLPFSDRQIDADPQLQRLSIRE

CAAX prenyl protease 2 = biological target: T4, CAAX prenyl protease 2 (Saccharomyces cerevisiae S288c, UniProt Q03530); format: biochemical
T4 sequence (Q03530 whole entry): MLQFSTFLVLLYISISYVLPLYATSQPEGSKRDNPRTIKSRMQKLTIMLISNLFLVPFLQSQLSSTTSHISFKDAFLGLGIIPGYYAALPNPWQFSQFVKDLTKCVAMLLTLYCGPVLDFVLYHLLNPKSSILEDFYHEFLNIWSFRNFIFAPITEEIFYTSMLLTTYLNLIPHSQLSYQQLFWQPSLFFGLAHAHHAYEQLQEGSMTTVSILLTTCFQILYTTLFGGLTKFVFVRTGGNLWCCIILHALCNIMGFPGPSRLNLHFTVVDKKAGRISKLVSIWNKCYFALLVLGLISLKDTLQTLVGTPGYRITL

T1 sequence (Q00975 whole entry): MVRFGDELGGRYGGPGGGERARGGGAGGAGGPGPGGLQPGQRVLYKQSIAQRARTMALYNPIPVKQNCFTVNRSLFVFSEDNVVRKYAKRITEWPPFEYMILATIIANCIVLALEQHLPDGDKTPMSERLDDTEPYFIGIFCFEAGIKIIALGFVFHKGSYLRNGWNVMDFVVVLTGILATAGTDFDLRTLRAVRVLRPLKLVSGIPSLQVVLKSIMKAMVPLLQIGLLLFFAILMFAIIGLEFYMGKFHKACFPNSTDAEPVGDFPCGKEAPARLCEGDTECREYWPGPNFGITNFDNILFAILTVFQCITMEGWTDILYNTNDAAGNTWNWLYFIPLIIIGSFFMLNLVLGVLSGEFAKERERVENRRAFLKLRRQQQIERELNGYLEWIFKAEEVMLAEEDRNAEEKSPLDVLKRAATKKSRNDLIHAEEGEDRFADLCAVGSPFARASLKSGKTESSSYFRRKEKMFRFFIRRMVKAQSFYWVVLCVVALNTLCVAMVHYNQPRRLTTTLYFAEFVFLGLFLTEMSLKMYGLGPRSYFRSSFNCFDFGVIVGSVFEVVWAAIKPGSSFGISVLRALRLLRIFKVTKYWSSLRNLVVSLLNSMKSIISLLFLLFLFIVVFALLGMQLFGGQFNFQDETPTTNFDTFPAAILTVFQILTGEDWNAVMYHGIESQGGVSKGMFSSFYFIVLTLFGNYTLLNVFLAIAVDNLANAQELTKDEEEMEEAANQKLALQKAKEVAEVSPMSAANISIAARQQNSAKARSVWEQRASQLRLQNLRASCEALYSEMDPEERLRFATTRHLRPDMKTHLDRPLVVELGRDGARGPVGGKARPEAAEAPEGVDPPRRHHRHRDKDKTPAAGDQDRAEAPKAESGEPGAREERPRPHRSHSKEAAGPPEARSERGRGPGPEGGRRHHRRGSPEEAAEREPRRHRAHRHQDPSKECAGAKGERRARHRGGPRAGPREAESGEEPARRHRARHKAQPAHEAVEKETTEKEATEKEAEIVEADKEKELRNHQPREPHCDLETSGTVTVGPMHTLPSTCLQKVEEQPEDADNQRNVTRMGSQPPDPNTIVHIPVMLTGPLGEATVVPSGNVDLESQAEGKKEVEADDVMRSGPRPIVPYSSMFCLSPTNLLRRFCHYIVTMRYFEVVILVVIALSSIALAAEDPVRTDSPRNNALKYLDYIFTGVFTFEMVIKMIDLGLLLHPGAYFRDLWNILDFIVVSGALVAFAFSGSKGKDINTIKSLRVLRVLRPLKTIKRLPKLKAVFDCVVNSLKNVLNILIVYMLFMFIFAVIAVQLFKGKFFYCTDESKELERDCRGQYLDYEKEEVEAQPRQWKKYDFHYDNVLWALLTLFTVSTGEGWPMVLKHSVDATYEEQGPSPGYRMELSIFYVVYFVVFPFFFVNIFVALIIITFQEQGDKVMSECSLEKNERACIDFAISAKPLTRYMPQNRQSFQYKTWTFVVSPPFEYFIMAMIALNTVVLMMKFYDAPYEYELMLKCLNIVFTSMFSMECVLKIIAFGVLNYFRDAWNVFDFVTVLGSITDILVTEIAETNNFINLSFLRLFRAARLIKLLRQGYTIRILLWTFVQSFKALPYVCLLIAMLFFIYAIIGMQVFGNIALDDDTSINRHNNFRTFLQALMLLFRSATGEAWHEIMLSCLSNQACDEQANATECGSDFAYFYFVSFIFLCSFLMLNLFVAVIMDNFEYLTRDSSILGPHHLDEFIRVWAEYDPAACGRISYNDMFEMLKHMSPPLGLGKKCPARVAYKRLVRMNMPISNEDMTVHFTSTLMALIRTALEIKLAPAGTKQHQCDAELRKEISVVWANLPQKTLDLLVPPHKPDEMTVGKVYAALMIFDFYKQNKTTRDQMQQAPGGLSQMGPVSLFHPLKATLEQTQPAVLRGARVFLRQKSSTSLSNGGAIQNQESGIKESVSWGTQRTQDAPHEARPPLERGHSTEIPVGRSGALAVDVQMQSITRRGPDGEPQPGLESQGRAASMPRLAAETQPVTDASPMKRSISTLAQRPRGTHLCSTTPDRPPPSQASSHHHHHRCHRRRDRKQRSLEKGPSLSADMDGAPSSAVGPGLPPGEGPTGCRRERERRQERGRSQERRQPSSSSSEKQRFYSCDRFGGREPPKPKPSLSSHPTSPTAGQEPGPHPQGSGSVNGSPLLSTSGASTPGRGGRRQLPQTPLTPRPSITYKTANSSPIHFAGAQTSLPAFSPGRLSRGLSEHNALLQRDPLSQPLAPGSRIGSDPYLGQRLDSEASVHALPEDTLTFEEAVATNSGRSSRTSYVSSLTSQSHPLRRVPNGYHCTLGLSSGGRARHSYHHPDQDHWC
T1 sequence (Q02410 whole entry): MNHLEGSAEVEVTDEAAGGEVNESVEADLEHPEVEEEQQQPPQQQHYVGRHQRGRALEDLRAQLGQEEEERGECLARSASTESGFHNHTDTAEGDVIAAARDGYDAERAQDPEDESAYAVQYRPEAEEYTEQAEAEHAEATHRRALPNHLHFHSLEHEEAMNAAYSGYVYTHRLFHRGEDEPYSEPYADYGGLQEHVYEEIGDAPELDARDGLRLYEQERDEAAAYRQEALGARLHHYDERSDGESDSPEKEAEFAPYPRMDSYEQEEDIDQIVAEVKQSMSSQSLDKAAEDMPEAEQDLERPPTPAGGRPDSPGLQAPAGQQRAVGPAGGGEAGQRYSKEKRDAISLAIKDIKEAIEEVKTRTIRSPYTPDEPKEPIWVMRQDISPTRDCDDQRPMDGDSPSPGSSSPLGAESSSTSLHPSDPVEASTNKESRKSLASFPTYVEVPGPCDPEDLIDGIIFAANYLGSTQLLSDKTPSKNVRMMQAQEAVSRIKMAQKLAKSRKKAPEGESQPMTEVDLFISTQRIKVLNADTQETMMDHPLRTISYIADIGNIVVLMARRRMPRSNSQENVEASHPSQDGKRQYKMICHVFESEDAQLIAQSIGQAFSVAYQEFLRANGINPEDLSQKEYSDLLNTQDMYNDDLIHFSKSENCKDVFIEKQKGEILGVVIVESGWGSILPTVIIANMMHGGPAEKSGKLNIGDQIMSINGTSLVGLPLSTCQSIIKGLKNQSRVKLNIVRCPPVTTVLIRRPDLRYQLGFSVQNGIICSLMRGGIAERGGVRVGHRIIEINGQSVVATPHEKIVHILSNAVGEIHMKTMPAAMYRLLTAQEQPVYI
Sequence of Induced myeloid leukemia cell differentiation protein Mcl-1 (Q07820 whole entry): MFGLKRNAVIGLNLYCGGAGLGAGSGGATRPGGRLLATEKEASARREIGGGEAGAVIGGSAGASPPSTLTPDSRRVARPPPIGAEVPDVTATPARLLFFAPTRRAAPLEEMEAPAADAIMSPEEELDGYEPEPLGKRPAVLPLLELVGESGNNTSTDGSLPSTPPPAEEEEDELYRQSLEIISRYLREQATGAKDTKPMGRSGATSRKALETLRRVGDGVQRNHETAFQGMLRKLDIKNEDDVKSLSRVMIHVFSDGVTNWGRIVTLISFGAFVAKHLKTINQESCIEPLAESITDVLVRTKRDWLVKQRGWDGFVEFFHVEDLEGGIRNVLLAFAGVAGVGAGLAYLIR

## CC(=O)Nc1ccc(C2=NN=C(Nc3cccc(S(=O)(=O)N(C)C)c3)SC2)cc1
[1]
  IC50: 3.56 µM (active)
[2]
  IC50: > 50 µM (inactive)
[3]
  IC50: 4.2 µM (active)

## Fc1ccc(N2N=C(c3cccs3)CC2c2ccco2)c(F)c1 (stereo unspecified)
Aminopeptidase N
  IC50: 107 µM (active)

## COC(=O)c1ccc(/C=C2/SC(=S)N(CCCC(=O)Nc3ccc(O)cc3)C2=O)cc1
[1]
  IC50: 35.4 µM (active)
[2]
  IC50: > 50 µM (inactive)

## O=C(NC1CCS(=O)(=O)C1)c1cccc(Br)c1 (stereo unspecified)
[4]
  AC50: 8.94 µM (active)

## CC1CCN(C(=O)C2CCN(S(=O)(=O)c3ccc(-n4cnnn4)cc3)CC2)CC1
CAAX prenyl protease 2
  AC50: 22.8 µM (active)

## COc1cccc(C(=O)CC(C#N)c2ccc(F)cc2)c1 (stereo unspecified)
[4]
  AC50: 6.55 µM (active)

## O=C1N=C(NS(=O)(=O)Cc2ccccc2)S/C1=C/c1cccc([N+](=O)[O-])c1
Aminopeptidase N
  IC50: 50.2 µM (active)

## CCOC(=O)N1CCN(c2ccc(Cl)cc2)CC1
[4]
  AC50: 7.18 µM (active)
